Measured values as given in patent US20240025905A1, “SALTS OF DIHYDROPYRIMIDINE DERIVATIVES, COMPLEXES AND USES THEREOF IN MEDICINE” (SUNSHINE LAKE PHARMA CO., LTD., priority 2020, published 2024).

Legend:
[1] = Pharmacokinetic evaluation of experimental animals after oral administration; assay type: in vivo, Beagle dogs; conditions: for AUC0-t / Cmax: beagle dogs, oral via capsules, 10 mg/kg; for absorption in the body / in animals (in words): dog, in vivo; for exposure / pharmacokinetic properties (in words): experimental animals, oral
Method: Blood samples were taken at 0.25, 0.5, 1, 2, 4, 6, 8 and 24 hours from forelimb vein after the administration, and collected in anticoagulation tube with EDTA-K2. After liquid-liquid extraction, the blood samples were quantitatively analyzed on a triple quadrupole tandem mass spectrometer using multiple reactive ion monitoring (MRM). Pharmacokinetic parameters (AUC0-t and Cmax) were calculated using a noncompartmental method by WinNonLin 6.3 software.

[2] = Stability test (high temperature, high humidity and light tests); assay type: physicochemical; conditions: for stability (in words): high temperature, high humidity or light conditions for 10 days
Method: High temperature test: An appropriate amount of the test product was added into a flat weighing bottle and spread into a thin layer with thickness ≤5 mm. The bottle was placed at 60° C. or 40° C. for 10 days. Samples were taken at the 5th and 10th days to check the appearance, related substances and purity.
High humidity test: An appropriate amount of the test product was added into a flat weighing bottle and spread into a thin layer with thickness 5 mm. The bottle was placed at 25° C. and a relative humidity of 90%±5% for 10 days. Samples were taken at the 5th and 10th days to check the appearance, related substances and purity. At the same time, the weight of the test product before and after the test were accurately weighed to investigate the moisture absorption and deliquescence performance of the test product. Light test: An appropriate amount of the test product was added into a flat weighing bottle and spread into a thin layer with thickness ≤5 mm. The bottle was opened and placed in a light box (with UV) at the illuminance 4500±500 lx, UV light≥0.7 w/m^2 for 10 days. Samples were taken at the 5th and 10th days to check the appearance, related substances and purity.

[3] = Experimental research on hygroscopicity; assay type: physicochemical; conditions: 25° C.±1° C., relative humidity 90%±2%, 24 hours
Method: A dry stoppered glass weighing bottle (outer diameter was 50 mm, height was 15 mm) was placed in a suitable constant temperature dryer (a saturated solution of ammonium chloride or ammonium sulfate was placed at the bottom, the relative humidity was within 90%±2%) at 25° C.±1° C. the day before, and the weighing bottle was precisely weighed (m1). An appropriate amount of the test product was spread flat in the above weighing bottle. The thickness of the test product was generally about 1 mm, and the weighing bottle was precisely weighed (m2). The weighing bottle was opened and placed for 24 hours under the above constant temperature and humidity conditions with the bottle cap. The weighing bottle was closed and precisely weighed (m3), and the weight gain percentage (%) was calculated. Testing method: According to Ph.

[4] = High humidity (90% RH), 25° C., 5 days
[5] = High humidity (90% RH), 25° C., 10 days
[6] = High temperature (60° C.), 5 days
[7] = High temperature (60° C.), 10 days
[8] = Light (4500±500 lx, UV light≥0.7 w/m^2), 5 days
[9] = Light (4500±500 lx, UV light≥0.7 w/m^2), 10 days

Row | SMILES | AUC0-t [1] [ng·h/mL] | Cmax [1] [ng/mL] | absorption in the body / in animals (in words) [1] | exposure / pharmacokinetic properties (in words) [1] | Purity (%) ([2]; 0 days) | Purity (%) [2, 4] [%] | Purity (%) [2, 5] [%] | Purity (%) [2, 6] [%] | Purity (%) [2, 7] [%] | Purity (%) [2, 8] [%] | Purity (%) [2, 9] [%] | stability (in words) [2] | Weight gain of moisture absorption (%) [3] [%] | hygroscopicity judgment [3] | stability under high temperature (in words) ([2]; high temperature (such as 60° C.))
1 | COC(=O)C1=C(CN2CCN3C(=O)N(c4ccc(CCC(=O)O)cc4F)C[C@@H]3C2)N=C(c2nccs2)N[C@H]1c1ccc(F)cc1Cl.Cl [3-(4-((S)-7-(((R)-6-(2-chloro-4-fluorophenyl)-5-(methoxycarbonyl)-2-(thiazol-2-yl)-1,6-dihydropyrimidin-4-yl)methyl)-3-oxohexahydroimidazo[1,5-a]pyrazine-2(3H)-yl)-3-fluorophenyl)prop ionic acid hydrochloride crystal form A] | 8630 | 4980 | better absorbed | higher exposure | 99.39 | 99.37 | 99.30 | 99.36 | 99.22 | 99.34 | 99.26 | very good | 1.32 | slightly hygroscopicity | –
2 | Br.COC(=O)C1=C(CN2CCN3C(=O)N(c4ccc(CCC(=O)O)cc4F)C[C@@H]3C2)N=C(c2nccs2)N[C@H]1c1ccc(F)cc1Cl [3-(4-((S)-7-(((R)-6-(2-chloro-4-fluorophenyl)-5-(methoxycarbonyl)-2-(thiazol-2-yl)-1,6-dihydropyrimidin-4-yl)methyl)-3-oxohexahydroimidazo[1,5-a]pyrazine-2(3H)-yl)-3-fluorophenyl)propionic acid hydrobromide crystal form A] | 5690 | 3340 | – | – | 98.41 | 98.82 | 98.69 | 98.43 | 98.93 | 98.80 | 98.88 | very good | – | – | –
3 | COC(=O)C1=C(CN2CCN3C(=O)N(c4ccc(CCC(=O)O)cc4F)C[C@@H]3C2)NC(c2nccs2)=N[C@H]1c1ccc(F)cc1Cl.N=C(N)NCCC[C@H](N)C(=O)O [3-(4-((S)-7-(((R)-6-(2-chloro-4-fluorophenyl)-5-(methoxycarbonyl)-2-(thiazol-2-yl)-3,6-dihydropyrimidin-4-yl)methyl)-3-oxohexahydroimidazo[1,5-a]pyrazine-2(3H)-yl)-3-fluorophenyl)prop ionic acid L-arginine salt crystal form A] | 13100 | 6810 | better absorbed | higher exposure | 99.52 | 99.38 | 99.39 | 99.46 | 99.42 | 99.10 | 98.72 | very good | 1.34 | slightly hygroscopicity | –
4 | CN(C)C=O.COC(=O)C1=C(CN2CCN3C(=O)N(c4ccc(CCC(=O)O)cc4F)C[C@@H]3C2)NC(c2nccs2)=N[C@H]1c1ccc(F)cc1Cl [3-(4-((S)-7-(((R)-6-(2-chloro-4-fluorophenyl)-5-(methoxycarbonyl)-2-(thiazol-2-yl)-3,6-dihydropyrimidin-4-yl)methyl)-3-oxohexahydroimidazo[1,5-a]pyrazine-2(3H)-yl)-3-fluorophenyl)prop ionic acid N,N-dimethylformamide complex] | – | – | – | – | 98.63 | 98.87 | 98.71 | 98.48 | 97.76 | 98.82 | 98.48 | very good | – | – | –
5 | COC(=O)C1=C(CN2CCN3C(=O)N(c4ccc(CCC(=O)O)cc4F)C[C@@H]3C2)N=C(c2nccs2)N[C@H]1c1ccc(F)cc1Cl.O=P(O)(O)O [Phosphate crystal form A of the compound having Formula (Ia)] [3-(4-((S)-7-(((R)-6-(2-chloro-4-fluorophenyl)-5-(methoxycarbonyl)-2-(thiazol-2-yl)-1,6-dihydropyrimidin-4-yl)methyl)-3-oxohexahydroimidazo[1,5-a]pyrazine-2(3H)-yl)-3-fluorophenyl)prop ionic acid phosphate crystal form A] | 4350 | 2690 | – | – | 99.13 | 99.04 | 99.07 | 98.86 | 98.39 | 99.03 | 99.06 | very good | – | – | –
6 | COC(=O)C1=C(CN2CCN3C(=O)N(c4ccc(CCC(=O)O)cc4F)C[C@@H]3C2)N=C(c2nccs2)N[C@H]1c1ccc(F)cc1Cl.O=P(O)(O)O [Phosphate crystal form C of the compound having Formula (Ia)] [3-(4-((S)-7-(((R)-6-(2-chloro-4-fluorophenyl)-5-(methoxycarbonyl)-2-(thiazol-2-yl)-1,6-dihydropyrimidin-4-yl)methyl)-3-oxohexahydroimidazo[1,5-a]pyrazine-2(3H)-yl)-3-fluorophenyl)prop ionic acid phosphate crystal form C] | 1900 | 907 | – | – | 99.34 | 99.29 | 99.36 | 87.42 | 60.31 | 99.30 | 99.30 | – | – | – | unstable

Further lines, results first:

Row | AUC0-t [1] [ng·h/mL] | Cmax [1] [ng/mL] | absorption in the body / in animals (in words) [1] | exposure / pharmacokinetic properties (in words) [1] | Purity (%) ([2]; 0 days) | Purity (%) [2, 4] [%] | Purity (%) [2, 5] [%] | Purity (%) [2, 6] [%] | Purity (%) [2, 7] [%] | Purity (%) [2, 8] [%] | Purity (%) [2, 9] [%] | stability (in words) [2] | Weight gain of moisture absorption (%) [3] [%] | hygroscopicity judgment [3] | stability under high temperature (in words) ([2]; high temperature (such as 60° C.)) | SMILES
7 | – | – | – | – | 99.40 | 99.37 | 99.36 | 99.15 | 98.68 | 99.37 | 99.40 | very good | – | – | – | COC(=O)C1=C(CN2CCN3C(=O)N(c4ccc(CCC(=O)O)cc4F)C[C@@H]3C2)N=C(c2nccs2)N[C@H]1c1ccc(F)cc1Cl.CS(=O)(=O)O [3-(4-((S)-7-(((R)-6-(2-chloro-4-fluorophenyl)-5-(methoxycarbonyl)-2-(thiazol-2-yl)-1,6-dihydropyrimidin-4-yl)methyl)-3-oxohexahydroimidazo[1,5-a]pyrazine-2(3H)-yl)-3-fluorophenyl)propionic acid methanesulfonate crystal form A]
8 | – | – | – | – | 99.14 | 99.17 | 99.22 | 99.16 | 99.12 | 99.17 | 99.15 | very good | – | – | – | COC(=O)C1=C(CN2CCN3C(=O)N(c4ccc(CCC(=O)O)cc4F)C[C@@H]3C2)N=C(c2nccs2)N[C@H]1c1ccc(F)cc1Cl.O=S(=O)(O)O [Sulfate crystal form A of the compound having Formula (Ia)] [3-(4-((S)-7-(((R)-6-(2-chloro-4-fluorophenyl)-5-(methoxycarbonyl)-2-(thiazol-2-yl)-1,6-dihydropyrimidin-4-yl)methyl)-3-oxohexahydroimidazo[1,5-a]pyrazine-2(3H)-yl)-3-fluorophenyl)prop ionic acid sulfate crystal form A]
9 | 10840 | 6620 | better absorbed | higher exposure | 98.98 | 98.90 | 98.94 | 98.94 | 98.68 | 99.01 | 98.91 | very good | 0.97 | slightly hygroscopicity | – | COC(=O)C1=C(CN2CCN3C(=O)N(c4ccc(CCC(=O)O)cc4F)C[C@@H]3C2)N=C(c2nccs2)N[C@H]1c1ccc(F)cc1Cl.O=S(=O)(O)O [Sulfate crystal form B of the compound having Formula (Ia)] [3-(4-((S)-7-(((R)-6-(2-chloro-4-fluorophenyl)-5-(methoxycarbonyl)-2-(thiazol-2-yl)-1,6-dihydropyrimidin-4-yl)methyl)-3-oxohexahydroimidazo[1,5-a]pyrazine-2(3H)-yl)-3-fluorophenyl)prop ionic acid sulfate crystal form B]
